Assays:
[1] = target: B-Raf (Homo sapiens (Human), UniProt P15056); experiment: B-Raf kinase activity biochemical assay (AlphaScreen, biotin-MEK1 phosphorylation); settings: B-Raf
Summary of the method: (§1)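 Compounds from a 0.1 mM DMSO stock were tested at 8 serially diluted points. Kinase reactions with 100 μM ATP (final) ran 45 min at room temperature, then were stopped with EDTA buffer containing anti-phospho-MEK1/2 antibody plus streptavidin donor and protein A acceptor beads.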

[2] = test system: B-Raf; experiment: as above; settings: for Biochemical activity ratio B/V600E: ratio of IC50 B-Raf / B-Raf V600E; for Biochemical activity ratio B/C: ratio of IC50 B-Raf / c-Raf-1
Summary of the method: as §1

[3] = target: CYP2C9 (Homo sapiens (Human), UniProt P11712); experiment: CYP enzyme inhibition, fluorescent substrate (MFC)
Summary of the method: (§2)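 First, 100 mM DMSO stocks are diluted into acetonitrile, then twofold through co-factor mix for 10 points. Next, mixtures are preincubated 10 min at 37 °C.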

[4] = target: CYP2D6 (Homo sapiens (Human), UniProt P10635); experiment: CYP enzyme inhibition, fluorescent substrate (AMMC); format: in vitro ADME; settings: read-out: Cyp IC50 2D6
Summary of the method: (§3)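 IC50 derived from loss of fluorescent metabolite across a 10-point 1:1 dilution series. CYP2D6: 1.5 pmol enzyme, 1.5 μM AMMC, 30 min at 37 °C, 409/530 nm; CYP1A2: 0.5 pmol, 5 μM CEC, 15 min, 409/460 nm. Compounds pre-incubated 10 min in NADPH-regenerating mix.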

[5] = target: CYP3A4(BFC) (Homo sapiens (Human), UniProt P08684); experiment: CYP enzyme inhibition, fluorescent substrate BFC
Summary of the method: as §2

[6] = target: CYP1A2 (Homo sapiens (Human), UniProt P05177); experiment: CYP enzyme inhibition, fluorescent substrate (CEC)
Summary of the method: as §3

[7] = target: B-Raf V600E (Homo sapiens (Human), UniProt P15056, V600E); experiment: B-Raf V600E kinase activity biochemical assay (AlphaScreen, biotin-MEK1 phosphorylation); settings: for IC50: B-Raf V600E; for Biochemical activity ratio V600E/C: ratio of IC50 B-Raf V600E / c-Raf-1
Summary of the method: as §1

[8] = target: CYP3A4(BQ) (Homo sapiens (Human), UniProt P08684); experiment: CYP enzyme inhibition, fluorescent substrate BQ
Summary of the method: as §2

[9] = Relative solubility by turbidity threshold concentration in aqueous buffers (pH 1.5, 4.5, 6.8, 7.4); format: physicochemical; settings: for turbidity threshold (L, M, H) 1.4: pH 1.4 [sic] (method: SGF pH 1.5); for turbidity threshold (L, M, H) 4.5: pH 4.5 (SIF); for turbidity threshold (L, M, H) 6.8: pH 6.8 (SIF); for turbidity threshold (L, M, H) 7.4: pH 7.4 (HEPES)
Summary of the method: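 Solubility class (high >250 μM, moderate 31.3–250 μM, low <31.3 μM) comes from the concentration where absorbance reaches a 0.01 threshold, averaged across 490/535/650 nm. Samples were compound dilutions from DMSO stock, 1 μL into 99 μL buffer at pH 1.5, 4.5, 6.8 or 7.4.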

[10] = target: c-Raf-1 (Homo sapiens, UniProt P04049); experiment: c-Raf-1 kinase activity biochemical assay (AlphaScreen, biotin-MEK1 phosphorylation)
Summary of the method: as §1

[11] = target: CYP2C19 (Homo sapiens (Human), UniProt P33261); experiment: CYP enzyme inhibition, fluorescent substrate (CEC)
Summary of the method: as §2

CYP2C19, sequence (P33261 whole entry): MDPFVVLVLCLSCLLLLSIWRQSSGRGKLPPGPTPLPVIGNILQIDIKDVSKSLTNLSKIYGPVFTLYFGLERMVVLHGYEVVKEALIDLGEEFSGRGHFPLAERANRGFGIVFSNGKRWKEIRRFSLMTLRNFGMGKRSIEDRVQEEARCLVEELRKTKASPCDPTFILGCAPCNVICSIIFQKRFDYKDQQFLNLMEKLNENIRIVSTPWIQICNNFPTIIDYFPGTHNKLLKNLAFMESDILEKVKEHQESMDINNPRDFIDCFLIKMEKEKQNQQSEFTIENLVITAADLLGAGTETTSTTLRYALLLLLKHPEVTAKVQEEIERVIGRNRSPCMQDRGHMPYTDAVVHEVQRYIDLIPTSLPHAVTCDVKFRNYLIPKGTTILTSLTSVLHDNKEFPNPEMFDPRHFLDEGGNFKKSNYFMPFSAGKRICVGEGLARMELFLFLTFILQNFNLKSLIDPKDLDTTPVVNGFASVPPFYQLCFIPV
CYP2C9, sequence (P11712 whole entry): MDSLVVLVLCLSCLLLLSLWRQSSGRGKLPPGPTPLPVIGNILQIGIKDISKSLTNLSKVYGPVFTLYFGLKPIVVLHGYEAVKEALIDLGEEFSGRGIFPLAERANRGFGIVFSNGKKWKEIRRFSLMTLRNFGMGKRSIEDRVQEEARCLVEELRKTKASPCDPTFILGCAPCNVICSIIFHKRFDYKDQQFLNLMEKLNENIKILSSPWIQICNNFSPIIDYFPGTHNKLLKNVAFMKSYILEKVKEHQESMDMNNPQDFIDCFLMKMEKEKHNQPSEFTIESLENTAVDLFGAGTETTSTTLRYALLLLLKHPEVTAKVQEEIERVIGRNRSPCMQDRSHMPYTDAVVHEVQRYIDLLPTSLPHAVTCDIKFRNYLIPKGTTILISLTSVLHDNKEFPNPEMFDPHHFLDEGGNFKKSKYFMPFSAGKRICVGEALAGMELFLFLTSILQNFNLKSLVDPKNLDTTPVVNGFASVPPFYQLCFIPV
c-Raf-1, sequence (P04049 whole entry, looked up): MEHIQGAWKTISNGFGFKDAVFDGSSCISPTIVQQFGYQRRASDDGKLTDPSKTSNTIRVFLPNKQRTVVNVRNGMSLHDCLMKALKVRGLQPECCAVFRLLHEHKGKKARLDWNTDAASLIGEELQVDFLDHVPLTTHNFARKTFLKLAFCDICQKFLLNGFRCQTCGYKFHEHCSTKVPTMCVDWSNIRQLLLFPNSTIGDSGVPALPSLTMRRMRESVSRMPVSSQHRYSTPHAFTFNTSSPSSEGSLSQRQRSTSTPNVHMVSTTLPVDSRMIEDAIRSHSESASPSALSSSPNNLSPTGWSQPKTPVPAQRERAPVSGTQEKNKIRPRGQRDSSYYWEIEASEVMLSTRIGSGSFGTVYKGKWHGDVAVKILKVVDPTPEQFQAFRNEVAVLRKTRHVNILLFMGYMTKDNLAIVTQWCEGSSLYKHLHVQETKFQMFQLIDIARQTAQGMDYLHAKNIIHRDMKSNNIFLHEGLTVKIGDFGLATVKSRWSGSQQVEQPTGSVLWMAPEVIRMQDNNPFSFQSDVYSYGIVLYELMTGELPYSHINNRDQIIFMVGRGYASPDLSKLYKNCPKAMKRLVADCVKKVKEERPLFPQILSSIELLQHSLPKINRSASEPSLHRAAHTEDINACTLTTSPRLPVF
CYP1A2, sequence (P05177 whole entry): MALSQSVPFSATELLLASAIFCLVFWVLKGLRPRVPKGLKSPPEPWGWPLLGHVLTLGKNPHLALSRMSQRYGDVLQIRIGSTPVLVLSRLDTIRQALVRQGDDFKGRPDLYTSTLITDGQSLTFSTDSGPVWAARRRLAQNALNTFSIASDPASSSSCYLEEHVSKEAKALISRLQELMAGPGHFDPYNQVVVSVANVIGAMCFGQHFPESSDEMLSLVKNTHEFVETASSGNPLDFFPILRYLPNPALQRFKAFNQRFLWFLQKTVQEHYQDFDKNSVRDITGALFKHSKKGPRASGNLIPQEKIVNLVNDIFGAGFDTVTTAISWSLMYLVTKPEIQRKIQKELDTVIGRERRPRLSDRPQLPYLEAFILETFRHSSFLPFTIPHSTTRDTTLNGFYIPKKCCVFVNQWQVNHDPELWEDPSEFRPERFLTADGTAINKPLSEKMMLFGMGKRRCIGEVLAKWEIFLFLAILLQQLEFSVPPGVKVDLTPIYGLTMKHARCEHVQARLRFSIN
B-Raf (Homo sapiens (Human), UniProt P15056), sequence (P15056 whole entry): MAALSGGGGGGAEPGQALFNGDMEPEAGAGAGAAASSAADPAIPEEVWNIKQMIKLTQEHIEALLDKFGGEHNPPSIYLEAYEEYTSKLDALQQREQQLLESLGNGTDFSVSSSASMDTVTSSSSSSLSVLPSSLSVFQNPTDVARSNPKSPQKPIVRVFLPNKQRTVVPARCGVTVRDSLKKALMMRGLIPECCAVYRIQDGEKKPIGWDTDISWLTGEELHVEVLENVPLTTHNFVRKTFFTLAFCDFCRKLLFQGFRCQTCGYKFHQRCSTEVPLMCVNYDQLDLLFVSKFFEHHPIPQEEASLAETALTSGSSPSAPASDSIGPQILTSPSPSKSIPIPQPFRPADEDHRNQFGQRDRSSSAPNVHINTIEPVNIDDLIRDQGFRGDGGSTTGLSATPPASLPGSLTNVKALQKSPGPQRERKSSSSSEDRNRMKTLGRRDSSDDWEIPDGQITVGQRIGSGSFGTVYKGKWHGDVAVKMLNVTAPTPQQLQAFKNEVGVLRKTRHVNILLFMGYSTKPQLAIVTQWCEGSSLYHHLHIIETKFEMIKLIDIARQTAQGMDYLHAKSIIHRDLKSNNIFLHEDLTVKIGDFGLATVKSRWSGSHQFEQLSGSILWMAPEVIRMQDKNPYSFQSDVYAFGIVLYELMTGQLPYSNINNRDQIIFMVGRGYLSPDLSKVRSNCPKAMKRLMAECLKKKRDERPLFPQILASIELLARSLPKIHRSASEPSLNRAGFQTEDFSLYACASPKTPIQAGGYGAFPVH
CYP2D6, sequence (P10635 whole entry): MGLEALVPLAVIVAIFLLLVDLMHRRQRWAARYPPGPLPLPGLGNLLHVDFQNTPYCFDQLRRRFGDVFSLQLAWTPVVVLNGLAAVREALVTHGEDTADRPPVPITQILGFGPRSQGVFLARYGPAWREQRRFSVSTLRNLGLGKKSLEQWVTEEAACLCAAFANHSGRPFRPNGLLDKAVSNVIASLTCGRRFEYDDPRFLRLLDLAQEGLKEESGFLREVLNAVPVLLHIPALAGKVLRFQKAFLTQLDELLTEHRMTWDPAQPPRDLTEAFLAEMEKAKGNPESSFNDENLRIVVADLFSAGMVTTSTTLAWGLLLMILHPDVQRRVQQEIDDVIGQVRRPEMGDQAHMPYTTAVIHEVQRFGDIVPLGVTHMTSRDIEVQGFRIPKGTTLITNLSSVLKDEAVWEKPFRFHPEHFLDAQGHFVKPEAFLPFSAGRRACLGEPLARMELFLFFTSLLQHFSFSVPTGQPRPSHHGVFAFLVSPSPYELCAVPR
B-Raf V600E, sequence (P15056 whole entry V600E): as the sequence (P15056 whole entry) above, with V600E counted along it
CYP3A4(BFC), sequence (P08684 whole entry): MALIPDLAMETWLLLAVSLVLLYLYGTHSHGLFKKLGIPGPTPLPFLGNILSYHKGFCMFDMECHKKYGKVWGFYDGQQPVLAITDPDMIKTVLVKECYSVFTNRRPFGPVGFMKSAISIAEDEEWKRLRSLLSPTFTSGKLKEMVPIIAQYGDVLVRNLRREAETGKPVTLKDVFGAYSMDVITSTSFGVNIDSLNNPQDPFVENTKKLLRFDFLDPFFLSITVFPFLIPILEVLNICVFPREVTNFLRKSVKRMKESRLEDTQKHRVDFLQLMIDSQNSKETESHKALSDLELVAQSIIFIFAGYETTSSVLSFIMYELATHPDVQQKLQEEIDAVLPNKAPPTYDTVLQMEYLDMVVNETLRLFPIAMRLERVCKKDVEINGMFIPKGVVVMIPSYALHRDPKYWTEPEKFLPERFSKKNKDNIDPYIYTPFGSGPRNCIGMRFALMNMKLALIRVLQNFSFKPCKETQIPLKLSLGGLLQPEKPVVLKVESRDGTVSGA
CYP3A4(BQ), sequence (P08684 whole entry): as above

IC50 [1] [µM]	Biochemical activity ratio B/V600E [2]	Biochemical activity ratio B/C [2]	IC50 [3] [µM]	IC50 [4] [µM]	IC50 [5] [µM]	IC50 [6] [µM]	IC50 [7] [µM]	Biochemical activity ratio V600E/C [7]	IC50 [8] [µM]	IC50 [10] [µM]	IC50 [11] [µM]	Structure (SMILES)	turbidity threshold (L, M, H) 1.4 [9]	turbidity threshold (L, M, H) 4.5 [9]	turbidity threshold (L, M, H) 6.8 [9]	turbidity threshold (L, M, H) 7.4 [9]
< 0.1	0.1-10	0.1-10	> 10	> 10	> 10	> 10	< 0.1	0.1-10	> 10	< 0.1	5 to 10	CCCS(=O)(=O)Nc1ccc(F)c(C(=O)c2c[nH]c3ncc(C)c(Cl)c23)c1F [P-2001, Propane-1-sulfonic acid [3-(4-chloro-5-methyl-1H-pyrrolo[2,3-b]pyridine-3-carbonyl)-2,4-difluoro-phenyl]-amide]	M (moderate solubility if the threshold concentration is 31.3 μM to 250 μM)	M (moderate solubility if the threshold concentration is 31.3 μM to 250 μM)	M (moderate solubility if the threshold concentration is 31.3 μM to 250 μM)	M (moderate solubility if the threshold concentration is 31.3 μM to 250 μM)
< 0.1	0.1-10	0.1-10	< 5	> 10	5 to 10	> 10	< 0.1	0.1-10	5 to 10	< 0.1	< 5	CCCS(=O)(=O)Nc1ccc(F)c(C(=O)c2c[nH]c3ncc(OC)c(Cl)c23)c1F [P-2002, Propane-1-sulfonic acid [3-(4-chloro-5-methoxy-1H-pyrrolo[2,3-b]pyridine-3-carbonyl)-2,4-difluoro-phenyl]-amide]	M (moderate solubility if the threshold concentration is 31.3 μM to 250 μM)	M (moderate solubility if the threshold concentration is 31.3 μM to 250 μM)	M (moderate solubility if the threshold concentration is 31.3 μM to 250 μM)	M (moderate solubility if the threshold concentration is 31.3 μM to 250 μM)

Second part, the compound before the results:

Structure (SMILES)	IC50 [1] [µM]	Biochemical activity ratio B/V600E [2]	Biochemical activity ratio B/C [2]	IC50 [3] [µM]	IC50 [4] [µM]	IC50 [5] [µM]	IC50 [6] [µM]	IC50 [7] [µM]	Biochemical activity ratio V600E/C [7]	IC50 [8] [µM]	IC50 [10] [µM]	IC50 [11] [µM]	turbidity threshold (L, M, H) 1.4 [9]	turbidity threshold (L, M, H) 4.5 [9]	turbidity threshold (L, M, H) 6.8 [9]	turbidity threshold (L, M, H) 7.4 [9]
CCCS(=O)(=O)Nc1ccc(F)c(C(=O)c2c[nH]c3ncc(F)c(C#N)c23)c1F [P-2003, Propane-1-sulfonic acid [3-(4-cyano-5-fluoro-1H-pyrrolo[2,3-b]pyridine-3-carbonyl)-2,4-difluoro-phenyl]-amide]	< 0.1	0.1-10	0.1-10	< 5	> 10	5 to 10	> 10	< 0.1	0.1-10	5 to 10	< 0.1	> 10	M (moderate solubility if the threshold concentration is 31.3 μM to 250 μM)	M (moderate solubility if the threshold concentration is 31.3 μM to 250 μM)	M (moderate solubility if the threshold concentration is 31.3 μM to 250 μM)	M (moderate solubility if the threshold concentration is 31.3 μM to 250 μM)
CCCS(=O)(=O)Nc1ccc(F)c(C(=O)c2c[nH]c3ncc(C#N)c(Cl)c23)c1F [P-2004, Propane-1-sulfonic acid [3-(4-chloro-5-cyano-1H-pyrrolo[2,3-b]pyridine-3-carbonyl)-2,4-difluoro-phenyl]-amide]	< 0.1	0.1-10	>10	< 5	> 10	> 10	> 10	< 0.1	0.1-10	> 10	< 0.1	> 10	L (low solubility if the threshold concentration is <31.3 μM)	L (low solubility if the threshold concentration is <31.3 μM)	L (low solubility if the threshold concentration is <31.3 μM)	L (low solubility if the threshold concentration is <31.3 μM)
CCCS(=O)(=O)Nc1ccc(F)c(C(=O)c2c[nH]c3ncc(C#N)c(OC)c23)c1F [P-2005, Propane-1-sulfonic acid [3-(5-cyano-4-methoxy-1H-pyrrolo[2,3-b]pyridine-3-carbonyl)-2,4-difluoro-phenyl]-amide]	< 0.1	0.1-10	0.1-10	< 5	> 10	> 10	> 10	< 0.1	0.1-10	> 10	< 0.1	> 10	M (moderate solubility if the threshold concentration is 31.3 μM to 250 μM)	L (low solubility if the threshold concentration is <31.3 μM)	L (low solubility if the threshold concentration is <31.3 μM)	M (moderate solubility if the threshold concentration is 31.3 μM to 250 μM)
CCCS(=O)(=O)Nc1ccc(F)c(C(=O)c2c[nH]c3ncc(Cl)c(OC)c23)c1F [P-2006, Propane-1-sulfonic acid [3-(5-chloro-4-methoxy-1H-pyrrolo[2,3-b]pyridine-3-carbonyl)-2,4-difluoro-phenyl]-amide]	< 0.1	0.1-10	>10	< 5	> 10	5 to 10	> 10	< 0.1	0.1-10	> 10	< 0.1	< 5	M (moderate solubility if the threshold concentration is 31.3 μM to 250 μM)	M (moderate solubility if the threshold concentration is 31.3 μM to 250 μM)	M (moderate solubility if the threshold concentration is 31.3 μM to 250 μM)	M (moderate solubility if the threshold concentration is 31.3 μM to 250 μM)
CCCS(=O)(=O)Nc1ccc(F)c(C(=O)c2c[nH]c3ncc(Cl)c(C#N)c23)c1F [P-2007, Propane-1-sulfonic acid [3-(5-chloro-4-cyano-1H-pyrrolo[2,3-b]pyridine-3-carbonyl)-2,4-difluoro-phenyl]-amide]	< 0.1	0.1-10	0.1-10	< 5	> 10	> 10	> 10	< 0.1	0.1-10	> 10	< 0.1	> 10	M (moderate solubility if the threshold concentration is 31.3 μM to 250 μM)	M (moderate solubility if the threshold concentration is 31.3 μM to 250 μM)	M (moderate solubility if the threshold concentration is 31.3 μM to 250 μM)	M (moderate solubility if the threshold concentration is 31.3 μM to 250 μM)

Source: patent US9617267B2, “Compounds and methods for kinase modulation, and indications therefor” (Plexxikon Inc., priority 2009, dated 2017)
